From patent US8785430B2, “Compound that can inhibit UBC13-UEV interactions, pharmaceutical compositions and therapeutic uses” (Consejo Superior de Investigaciones Cientificas, priority 2006, dated 2014)
pIC50: −log10 of the molar value. Like-named read-outs stand apart in the source and are kept apart here.

Experiments:
PC-3.Sluc cells tumors = experiment: PC-3.Sluc tumor xenografts in Balb/c nu/nu mice, light emission (RLUs); assay type: in vivo; conditions: doxorubicin alone i.v., 5 mg/Kg, once a week; 56 days
Procedure: For the purpose of determining if Varubin has an in vivo antitumor activity, its effects in mice having tumors formed from PC-3 cells were analyzed. The experimental tumors were formed by means of the intramuscular inoculation of PC-3.Sluc cells. The latter are PC-3 prostate cells in which they have been integrated by means of transfecting plasmid pRC/CMV-luc, which expresses the firefly (Photinus pyralis) luciferase gene in mammalian cells q. The incubation of the PC-3.luc cells with D-luciferin, a luciferase substrate, produces light, which can be quantified in an absolute manner (number of photons) either by means of a luminometer or by means of detection with a CCD (charge-coupled device) camera. The latter process further allows representing in real time images of the location of the tumor cells in the inoculated animals, as well as the tumor size, since the intensity of the light (number of photons) emitted in the presence of luciferin is directly proportional to the number of PC-3.luc cells.
For these studies, 24 male Balb/c nu/nu mice (Charles River Laboratories) of an age of 6 weeks were used. These animals were kept in a pathogen-free environment at all times, having been kept in the animal housing facility for 1 week after they were received, before the experimental handling. After being anesthetized by means of an intraperitoneal (i.p.) injection of a mixture at equal parts of 6 mg/Kg of droperidol (Roche, Basel, Switzerland) and 12 mg/Kg of midazolam (Rovi S.A, Madrid, Spain), intramuscular (i.m.) injections were performed both in the right leg and in the left leg of each animal of 1×10^6 PC-3.Sluc cells, suspended in 100 μL of fetal bovine serum-free culture medium. The development of tumors in the inoculation sites was allowed for 2 weeks, after which a first measurement of photons emitted was made and a first capture of images with an ORCA-2BT Imaging System instrument (Hammamatsu Photonics) provided with a C4742-98-LWG-MOD model CCD camera (cooled at −80° C.) was done at a resolution of 512×512 pixels. […] Four minutes later, photons were detected and quantified for 5 minutes in the instrument described above. […] The quantification and the analysis of photons were performed with the aid of the image analysis program WASABI (Hamamatsu Photonics). […] For the graphic representations, the quantitative data (RLUs) were standardized, for each tumor, in relation to the RLUs of day 0 of treatment.
The 24 mice, having luminescent tumors in both legs, were included in 4 experimental groups: (1) Control group, in which an intravenous (i.v.) injection of 100 μL of phosphate buffered saline pH 7.4 (PBS) and 50 μL of intratumoral (i.t.) PBS was performed. […] The light emission of the tumors was analyzed throughout 56 days from the start of the treatment.

PC-3 cells = experiment: CyQuant cell count, sensitization to doxorubicin; assay type: cell-based, human; conditions: Homo sapiens
Procedure: The addition of 100 μM of Ia reduced the IC50 of doxorubicin to 0.1 μM for PC-3 cells and the IC50 of etoposide to 0.04 μM for HeLa cells. Therefore, the treatment with 100 μM of compound Ia causes a sensitization to the cytotoxic effects of doxorubicin of 5 times (PC-3 cells) and a sensitization to the cytotoxic effects of etoposide of 30 times (HeLa cells).

HeLa cells = experiment: CyQuant cell count, sensitization to etoposide; conditions: Homo sapiens, HeLa, 24 h, read-out: IC50 for etoposide

| SMILES | tumor growth (RLUs) (PC-3.Sluc cells tumors) | pIC50 (PC-3 cells; 72 hours of treatment, doxorubicin alone, read-out: IC50 for doxorubicin) | pIC50 (PC-3 cells; plus 100 μM of Ia, read-out: IC50 of doxorubicin with addition of Ia) | pIC50 (HeLa cells) |
| --- | --- | --- | --- | --- |
| COc1cccc2c1C(=O)c1c(O)c3c(c(O)c1C2=O)C[C@@](O)(C(=O)CO)C[C@@H]3O[C@H]1C[C@H](N)[C@H](O)[C@H](C)O1 [doxorubicin] | hardly experienced growth | ~6.30 | 7.00 | – |
| COc1cc([C@@H]2c3cc4c(cc3[C@@H](O[C@@H]3O[C@@H]5CO[C@@H](C)O[C@H]5[C@H](O)[C@H]3O)[C@H]3COC(=O)[C@H]23)OCO4)cc(OC)c1O [etoposide, reference compound] | – | – | – | ~5.90 |
